How the values were obtained:
BRAF V600E = target: T1, BRAF V600E (Homo sapiens, UniProt P15056, V600E); test: Cellular assay of target protein degradation, T-Rex 293 cells stably transfected with HA-BRAF_V600E (HA immunofluorescence, high content imaging); assay type: cell-based; conditions: T-Rex 293 HA-BRAF V600E; for DC50: half maximal degradation, read-out: BRaf V600E DC50; for Dmax: maximum degradation observed
T1 construct: expressed in transfected cells
Summary of the method: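 Degradation of the HA-tagged construct is measured after 24 h treatment at 37 °C across 1 μM to 0.1 nM in 0.1% DMSO, in doxycycline-induced (1 ng/mL) cells. DC50 and Dmax come from HA fluorescence imaging.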

BRAF G466V = target: T2, BRAF G466V (Homo sapiens, UniProt P15056, G466V); test: Cellular assay of target protein degradation, T-Rex 293 cells stably transfected with HA-BRAF G466V (HA immunofluorescence, high content imaging); assay type: cell-based; conditions: T-Rex 293 HA-BRAF G466V; for DC50: half maximal degradation, read-out: BRaf G466V DC50; for Dmax: maximum degradation observed
T2 construct: expressed in transfected cells
Summary of the method: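 Dose range spans 30 nM to 3 pM (0.1% DMSO) over 24 hours at 37° C, in cells induced with 0.75 ng/mL doxycycline. Fixed cells are probed with anti-HA antibody overnight at 4° C, then imaged; half-maximal degradation and maximum degradation are derived.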

T2 sequence (P15056 whole entry G466V): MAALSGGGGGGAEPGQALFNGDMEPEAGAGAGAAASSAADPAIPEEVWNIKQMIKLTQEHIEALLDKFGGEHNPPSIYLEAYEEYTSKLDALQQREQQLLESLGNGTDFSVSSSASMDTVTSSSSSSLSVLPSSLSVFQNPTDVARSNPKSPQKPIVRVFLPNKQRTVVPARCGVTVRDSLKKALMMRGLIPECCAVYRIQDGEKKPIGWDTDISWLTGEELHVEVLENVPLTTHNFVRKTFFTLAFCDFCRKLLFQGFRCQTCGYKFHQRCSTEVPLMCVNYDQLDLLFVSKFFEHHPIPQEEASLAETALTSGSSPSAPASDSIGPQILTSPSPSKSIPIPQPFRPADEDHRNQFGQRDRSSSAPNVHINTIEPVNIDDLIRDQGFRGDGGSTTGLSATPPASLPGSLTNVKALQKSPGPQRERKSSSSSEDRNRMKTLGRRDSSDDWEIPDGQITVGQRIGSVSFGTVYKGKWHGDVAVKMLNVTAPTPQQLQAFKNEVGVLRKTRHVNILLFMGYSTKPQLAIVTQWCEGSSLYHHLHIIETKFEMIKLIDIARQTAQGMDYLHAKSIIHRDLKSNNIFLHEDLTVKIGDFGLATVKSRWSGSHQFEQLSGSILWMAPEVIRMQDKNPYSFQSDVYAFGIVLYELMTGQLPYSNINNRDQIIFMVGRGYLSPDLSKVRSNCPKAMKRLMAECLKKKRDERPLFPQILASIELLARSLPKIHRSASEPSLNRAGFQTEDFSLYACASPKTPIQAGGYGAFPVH
T1 sequence (P15056 whole entry V600E): as the sequence (P15056 whole entry G466V) above, with V466G, V600E counted along it

Row | DC50 (BRAF V600E) | Dmax (BRAF V600E) | DC50 (BRAF G466V) | Dmax (BRAF G466V) | Structure (SMILES)
1 | 5 to 50 nM | 35 to 70% | < 1 nM | 35 to 70% | COc1cc(OCCN2CCN(CCOc3ccc(-c4cnc5[nH]cc(C(=O)c6c(F)ccc(NS(=O)(=O)N7CC[C@@H](F)C7)c6F)c5c4)cc3)CC2)cc2c1C(=O)N([C@H]1CCC(=O)NC1=O)C2 [Compound 44, (3R)-N-(3-{5-[4-(2-{4-[2-({2-[(3S)-2,6-dioxopiperidin-3-yl]-7-methoxy-1-oxo-2,3-dihydro-1H-isoindol-5-yl}oxy)ethyl]piperazin-1-yl}ethoxy)phenyl]-1H-pyrrolo[2,3-b]pyridine-3-carbonyl}-2,4-difluorophenyl)-3-fluoropyrrolidine-1-sulfonamide]
2 | 5 to 50 nM | 35 to 70% | < 1 nM | 35 to 70% | COc1cc(OCCN2CCN(CCOc3ccc(-c4cnc5[nH]cc(C(=O)c6c(F)ccc(NS(=O)(=O)N7CC[C@@H](F)C7)c6F)c5c4)cc3)CC2)cc2c1C(=O)N([C@@H]1CCC(=O)NC1=O)C2 [Compound 45, (3R)-N-(3-{5-[4-(2-{4-[2-({2-[(3R)-2,6-dioxopiperidin-3-yl]-7-methoxy-1-oxo-2,3-dihydro-1H-isoindol-5-yl}oxy)ethyl]piperazin-1-yl}ethoxy)phenyl]-1H-pyrrolo[2,3-b]pyridine-3-carbonyl}-2,4-difluorophenyl)-3-fluoropyrrolidine-1-sulfonamide]
3 | 5 to 50 nM | 35 to 70% | < 1 nM | > 70% | O=C1CCC(N2Cc3cc(C4CCN(CC5CCN(c6ncc(-c7cnc8[nH]cc(C(=O)c9c(F)ccc(NS(=O)(=O)N%10CC[C@@H](F)C%10)c9F)c8c7)cn6)CC5)CC4)ccc3C2=O)C(=O)N1 (stereo partly drawn) [Compound 46, (3R)-N-[3-(5-{2-[4-({4-[2-(2,6-dioxopiperidin-3-yl)-1-oxo-2,3-dihydro-1H-isoindol-5-yl]piperidin-1-yl}methyl)piperidin-1-yl]pyrimidin-5-yl}-1H-pyrrolo[2,3-b]pyridine-3-carbonyl)-2,4-difluorophenyl]-3-fluoropyrrolidine-1-sulfonamide]
4 | > 500 nM |  | 10 to 30 nM | 35 to 70% | O=C1CCC(N2Cc3cc(N4CC5(CC(CN6CCCc7cc(-c8cnc9[nH]cc(C(=O)c%10c(F)ccc(NS(=O)(=O)N%11CC[C@@H](F)C%11)c%10F)c9c8)ccc76)C5)C4)ccc3C2=O)C(=O)N1 (stereo partly drawn) [Compound 47, (3R)-N-(3-{5-[1-({2-[2-(2,6-dioxopiperidin-3-yl)-1-oxo-2,3-dihydro-1H-isoindol-5-yl]-2-azaspiro[3.3]heptan-6-yl}methyl)-1,2,3,4-tetrahydroquinolin-6-yl]-1H-pyrrolo[2,3-b]pyridine-3-carbonyl}-2,4-difluorophenyl)-3-fluoropyrrolidine-1-sulfonamide]
5 | 50 to 500 nM | < 35% | 1 to 10 nM | < 35% | O=C1CC[C@@H](NC(=O)c2ccc(C3CCN(CC4CCN(c5ccc(-c6cnc7[nH]cc(C(=O)c8c(F)ccc(NS(=O)(=O)N9CC[C@@H](F)C9)c8F)c7c6)cc5)CC4)CC3)cc2F)C(=O)N1 [Compound 48, 4-(1-{[1-(4-{3-[2,6-difluoro-3-({[(3R)-3-fluoropyrrolidin-1-yl]sulfonyl}amino)benzoyl]-1H-pyrrolo[2,3-b]pyridin-5-yl}phenyl)piperidin-4-yl]methyl}piperidin-4-yl)-N-[(3R)-2,6-dioxopiperidin-3-yl]-2-fluorobenzamide]
6 | 5 to 50 nM | 35 to 70% | < 1 nM | 35 to 70% | O=C1CCC(N2Cc3cc(C4CCN(CCCc5ccc(-c6cnc7[nH]cc(C(=O)c8c(F)ccc(NS(=O)(=O)N9CC[C@@H](F)C9)c8F)c7c6)cc5)CC4)ccc3C2=O)C(=O)N1 (stereo partly drawn) [Compound 49, (3R)-N-(3-{5-[4-(3-{4-[2-(2,6-dioxopiperidin-3-yl)-1-oxo-2,3-dihydro-1H-isoindol-5-yl]piperidin-1-yl}propyl)phenyl]-1H-pyrrolo[2,3-b]pyridine-3-carbonyl}-2,4-difluorophenyl)-3-fluoropyrrolidine-1-sulfonamide]
7 | 5 to 50 nM | 35 to 70% | < 1 nM | > 70% | O=C1CCC(N2Cc3cc(N4CC5(CN(CCOc6ccc(-c7cnc8[nH]cc(C(=O)c9c(F)ccc(NS(=O)(=O)N%10CC[C@@H](F)C%10)c9F)c8c7)cc6)C5)C4)ccc3C2=O)C(=O)N1 (stereo partly drawn) [Compound 50, (3R)-N-(3-{5-[4-(2-{6-[2-(2,6-dioxopiperidin-3-yl)-1-oxo-2,3-dihydro-1H-isoindol-5-yl]-2,6-diazaspiro[3.3]heptan-2-yl}ethoxy)phenyl]-1H-pyrrolo[2,3-b]pyridine-3-carbonyl}-2,4-difluorophenyl)-3-fluoropyrrolidine-1-sulfonamide]
8 | 50 to 500 nM | 35 to 70% | 1 to 10 nM | 35 to 70% | C[C@@]12CN(CC3CCN(c4ccc5c(c4)CN([C@H]4CCC(=O)NC4=O)C5=O)CC3)C[C@@H]1CN(c1ccc(-c3cnc4[nH]cc(C(=O)c5c(F)ccc(NS(=O)(=O)N6CC[C@@H](F)C6)c5F)c4c3)cc1)C2 [Compound 51, (3R)-N-[3-(5-{4-[(3aS,6aR)-5-[(1-{2-[(3S)-2,6-dioxopiperidin-3-yl]-1-oxo-2,3-dihydro-1H-isoindol-5-yl}piperidin-4-yl)methyl]-3a-methyl-octahydropyrrolo[3,4-c]pyrrol-2-yl]phenyl}-1H-pyrrolo[2,3-b]pyridine-3-carbonyl)-2,4-difluorophenyl]-3-fluoropyrrolidine-1-sulfonamide]
9 | 50 to 500 nM | < 35% | 1 to 10 nM | 35 to 70% | C[C@@]12CN(CC3CCN(c4ccc5c(c4)CN([C@@H]4CCC(=O)NC4=O)C5=O)CC3)C[C@@H]1CN(c1ccc(-c3cnc4[nH]cc(C(=O)c5c(F)ccc(NS(=O)(=O)N6CC[C@@H](F)C6)c5F)c4c3)cc1)C2 [Compound 52, (3R)-N-[3-(5-{4-[(3aS,6aR)-5-[(1-{2-[(3R)-2,6-dioxopiperidin-3-yl]-1-oxo-2,3-dihydro-1H-isoindol-5-yl}piperidin-4-yl)methyl]-3a-methyl-octahydropyrrolo[3,4-c]pyrrol-2-yl]phenyl}-1H-pyrrolo[2,3-b]pyridine-3-carbonyl)-2,4-difluorophenyl]-3-fluoropyrrolidine-1-sulfonamide]
10 | 5 to 50 nM | 35 to 70% | < 1 nM | > 70% | C[C@@H]1CN(c2ccc(-c3cnc4[nH]cc(C(=O)c5c(F)ccc(NS(=O)(=O)N6CC[C@@H](F)C6)c5F)c4c3)cc2)C[C@H](C)N1CC1CN(c2ccc3c(c2)CN(C2CCC(=O)NC2=O)C3=O)C1 (stereo partly drawn) [Compound 53, (3R)-N-[3-(5-{4-[(3R,5S)-4-({1-[2-(2,6-dioxopiperidin-3-yl)-1-oxo-2,3-dihydro-1H-isoindol-5-yl]azetidin-3-yl}methyl)-3,5-dimethylpiperazin-1-yl]phenyl}-1H-pyrrolo[2,3-b]pyridine-3-carbonyl)-2,4-difluorophenyl]-3-fluoropyrrolidine-1-sulfonamide]
11 | 5 to 50 nM | 35 to 70% | < 1 nM | 35 to 70% | COc1cc(C2CCN(CC3CC4(C3)CN(c3ccc(-c5cnc6[nH]cc(C(=O)c7c(F)ccc(NS(=O)(=O)N8CC[C@@H](F)C8)c7F)c6c5)cc3)C4)CC2)cc2c1C(=O)N(C1CCC(=O)NC1=O)C2 (stereo partly drawn) [Compound 54, (3R)-N-[3-(5-{4-[6-({4-[2-(2,6-dioxopiperidin-3-yl)-7-methoxy-1-oxo-2,3-dihydro-1H-isoindol-5-yl]piperidin-1-yl}methyl)-2-azaspiro[3.3]heptan-2-yl]phenyl}-1H-pyrrolo[2,3-b]pyridine-3-carbonyl)-2,4-difluorophenyl]-3-fluoropyrrolidine-1-sulfonamide]
12 | 5 to 50 nM | 35 to 70% | < 1 nM | > 70% | O=C1CC[C@H](N2Cc3cc(N4CCC(CN5CC6(C5)CN(c5ccc(-c7cnc8[nH]cc(C(=O)c9c(F)ccc(NS(=O)(=O)N%10CC[C@@H](F)C%10)c9F)c8c7)cc5)C6)CC4)c(F)cc3C2=O)C(=O)N1 [Compound 55, (3R)-N-{3-[5-(4-{6-[(1-{2-[(3S)-2,6-dioxopiperidin-3-yl]-6-fluoro-1-oxo-2,3-dihydro-1H-isoindol-5-yl}piperidin-4-yl)methyl]-2,6-diazaspiro[3.3]heptan-2-yl}phenyl)-1H-pyrrolo[2,3-b]pyridine-3-carbonyl]-2,4-difluorophenyl}-3-fluoropyrrolidine-1-sulfonamide]
13 | 5 to 50 nM | 35 to 70% | < 1 nM | > 70% | O=C1CC[C@@H](N2Cc3cc(N4CCC(CN5CC6(C5)CN(c5ccc(-c7cnc8[nH]cc(C(=O)c9c(F)ccc(NS(=O)(=O)N%10CC[C@@H](F)C%10)c9F)c8c7)cc5)C6)CC4)c(F)cc3C2=O)C(=O)N1 [Compound 56, (3R)-N-{3-[5-(4-{6-[(1-{2-[(3R)-2,6-dioxopiperidin-3-yl]-6-fluoro-1-oxo-2,3-dihydro-1H-isoindol-5-yl}piperidin-4-yl)methyl]-2,6-diazaspiro[3.3]heptan-2-yl}phenyl)-1H-pyrrolo[2,3-b]pyridine-3-carbonyl]-2,4-difluorophenyl}-3-fluoropyrrolidine-1-sulfonamide]
